Test results published in US6730792B2, “β3 adrenergic agonists” (Eli Lilly and Company, priority 2000, dated 2004).

Biological target: T1, human β3 adrenergic receptor (Homo sapiens, UniProt P13945)
T1 construct: expressed in transfected cells; host or cells: DXB-11 Chinese hamster ovary (CHO) cell line, stably transfected (phd expression vector)
Assay: whole cell receptor coupled c-AMP assay, human β3 receptor in CHO cells (EC50, Emax relative to isoproterenol)
Format: cell-based
Conditions: Emax ± standard error of the mean; average of at least 3 runs except where n = 1; compound tested in the isolated form listed
Description: The genes encoding the human β1-adrenergic receptor (Frielle et al., Proc. Natl. Acad. Sci., 84:7920-7924, 1987), the human β2-adrenergic receptor (Kobika et al., Proc. Natl. Acad. Sci., 84:46-50, 1987, Emorine et al., Proc. Natl. Acad. Sci., 84:6995-6999, 1987) and the human β3 adrenergic receptor (Granneman et al., Molecular Pharmacology, 44(2):264-70, 1993) are individually subcloned into a phd expression vector (Grinnell et al., Bio/Technology, 5:1189-1192, 1987) and transfected into the DXB-11 Chinese hamster ovary (CHO) cell line by calcium phosphate precipitation methodology. The stably transfected cells are grown to 95% confluency in 95% Dulbecco's modified Eagles Medium (DMEM), 5% fetal bovine serum and 0.01% proline. Media is removed and the cells are washed with phosphate buffered (pH 7.4) saline (without magnesium and calcium). Cells are then lifted using an enzyme free cell dissociation solution (Specialty Media, Lavallette, N.J.) and pelleted by centrifugation.
Cells from each of the above cell lines are resuspended and added (20,000/well) to a 96-well plate. Cells are incubated at 37° C. with representative compounds of the invention for 20 minutes in buffer (Hank's balanced salt solution, 10 mM HEPES, 0.1% BSA, 1 mM L-ascorbic acid, 0.2% dimethyl sulfoxide, 1 mm 3-isobutyl-1-methylxanthine, pH 7.4). After halting the incubation with quench buffer (50 mM Na Acetate, 0.25% Triton X-100, pH 5.8), the c-AMP level is quantified by scintillation proximity assay (SPA) using a modification of the commercially available c-AMP kit (Amersham, Arlington Heights, Ill.) with rabbit anti-cAMP antibody (ICN Biomedicals, Aurora, Ohio) for the kit.
Sigmoidal dose response curves, from the whole cell receptor coupled c-AMP assay are fit to a four parameter logistic equation using non linear regression: y=(a−d)/(1+(Dose/c)^b)+d where a and d are responses at zero and maximal dose, b is the slope factor and c is the EC50 as previously described (DeLean et al., Am. J. Physiol., 235, E97-E102, 1978). EC50 is assessed as the concentration producing 50% of the maximum response to each agonist.
Isoproterenol is accepted in the art as a non-selective β3 agonist and is widely used as a comparator in evaluating the activity of compounds. See Trends in Pharm. Sci., 15:3, 1994. The % intrinsic activity (Emax) of representative compounds of the invention is assessed relative to isoproterenol by the compound's maximal response divided by the isoproterenol maximal response times 100.

T1 sequence (P13945 whole entry): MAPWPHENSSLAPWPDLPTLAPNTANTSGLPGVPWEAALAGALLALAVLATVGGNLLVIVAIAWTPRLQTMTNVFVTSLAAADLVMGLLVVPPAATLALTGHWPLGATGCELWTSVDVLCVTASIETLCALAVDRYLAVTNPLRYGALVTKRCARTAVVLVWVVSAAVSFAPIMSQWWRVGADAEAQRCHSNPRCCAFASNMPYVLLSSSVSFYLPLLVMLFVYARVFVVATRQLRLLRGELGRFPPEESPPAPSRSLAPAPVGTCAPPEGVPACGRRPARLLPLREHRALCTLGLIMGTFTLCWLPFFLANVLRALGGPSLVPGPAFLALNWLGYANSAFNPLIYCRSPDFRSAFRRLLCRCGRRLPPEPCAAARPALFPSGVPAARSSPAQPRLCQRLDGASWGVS

Structure (SMILES)	Emax (%) ± SEM
CCOC(=O)c1cccnc1Oc1ccc(CC(C)(C)NC[C@H](O)COc2ccccc2-c2cccs2)cc1.O=C(O)C(F)(F)F [Example 108]	87.1 ± 11.9%
CCOC(=O)c1cccnc1Oc1ccc(CC(C)(C)NC[C@H](O)COc2ccccc2-c2nccs2)cc1 [Example 109]	61.4 ± 4.4%
CCOC(=O)c1cccnc1Oc1ccc(CC(C)(C)NC[C@H](O)COc2ccccc2-c2ccno2)cc1 [Example 110]	60.3 ± 3.9%
CCOC(=O)c1cccnc1Oc1ccc(CC(C)(C)NC[C@H](O)COc2ccccc2-c2ccn[nH]2)cc1 [Example 111]	23.6 n = 1%
CCOC(=O)c1cccnc1Oc1ccc(CC(C)(C)NC[C@H](O)COc2ccccc2-c2ccno2)cc1.O=C(O)C(F)(F)F [Example 112]	56.9 ± 8.6%
COC(=O)c1ccc(Oc2ccc(CC(C)(C)NC[C@H](O)COc3ccccc3-c3ccnn3C)cc2)nc1 [Example 113]	20.7 n = 1%
COC(=O)c1ccc(Oc2ccc(CC(C)(C)NC[C@H](O)COc3ccccc3-c3ccn(C)n3)cc2)nc1 [Example 114]	56.6 n = 1%
COC(=O)c1ccc(Oc2ccc(CC(C)(C)NC[C@H](O)COc3ccccc3-c3cccs3)cc2)nc1 [Example 115]	61.9 ± 7.0%
COC(=O)c1ccc(Oc2ccc(CC(C)(C)NC[C@H](O)COc3ccccc3-c3nccs3)cc2)nc1 [Example 116]	58.2 ± 7.2%
COC(=O)c1ccc(Oc2ccc(CC(C)(C)NC[C@H](O)COc3ccccc3-c3ccno3)cc2)nc1 [Example 117]	32.2 ± 6.5%
COC(=O)c1ccc(Oc2ccc(CC(C)(C)NC[C@H](O)COc3ccccc3-c3ccn[nH]3)cc2)nc1 [Example 118]	29.5 n = 1%
CC(C)(Cc1ccc(Oc2ccc(C#N)cc2)cc1)NC[C@H](O)COc1ccccc1-c1cccs1.O=C(O)C(F)(F)F [Example 119]	55.2 ± 3.6%
CC(C)(Cc1ccc(Oc2ccc(C#N)cc2)cc1)NC[C@H](O)COc1ccccc1-c1nccs1.O=C(O)C(F)(F)F [Example 120]	35.8 ± 4.6%
CC(C)(Cc1ccc(Oc2ccc(C#N)cc2)cc1)NC[C@H](O)COc1ccccc1-c1ccno1.O=C(O)C(F)(F)F [Example 121]	38.9 ± 7.1%
CC(C)(Cc1ccc(Oc2ccc(C(N)=O)cc2)cc1)NC[C@H](O)COc1ccccc1-c1cccs1.O=C(O)C(F)(F)F [Example 123]	73.6 ± 8.2%
CC(C)(Cc1ccc(Oc2ccc(C(N)=O)cc2)cc1)NC[C@H](O)COc1ccccc1-c1nccs1.O=C(O)C(F)(F)F [Example 124]	46.7 ± 3.6%
CC(C)(Cc1ccc(Oc2ccc(C(N)=O)cc2)cc1)NC[C@H](O)COc1ccccc1-c1ccno1.O=C(O)C(F)(F)F [Example 125]	40.3 ± 7.9%
CC(C)(Cc1ccc(Oc2ccc(C(N)=O)cc2)cc1)NC[C@H](O)COc1ccccc1-c1ccns1.O=C(O)C(F)(F)F [Example 126]	62.2 ± 1.3%
Cn1nccc1-c1ccccc1OC[C@@H](O)CNC(C)(C)Cc1ccc(Oc2ccc(S(C)(=O)=O)cc2)cc1 [Example 127]	<10%
Cn1ccc(-c2ccccc2OC[C@@H](O)CNC(C)(C)Cc2ccc(Oc3ccc(S(C)(=O)=O)cc3)cc2)n1 [Example 128]	40.6 n = 1%
CC(C)(Cc1ccc(Oc2ccc(S(C)(=O)=O)cc2)cc1)NC[C@H](O)COc1ccccc1-c1cccs1.O=C(O)C(F)(F)F [Example 129]	53.2 ± 4.8%
CC(C)(Cc1ccc(Oc2ccc(S(C)(=O)=O)cc2)cc1)NC[C@H](O)COc1ccccc1-c1nccs1 [Example 130]	49.5 ± 3.4%
CC(C)(Cc1ccc(Oc2ccc(S(C)(=O)=O)cc2)cc1)NC[C@H](O)COc1ccccc1-c1nccs1.O=C(O)C(F)(F)F [Example 131]	43.5 ± 1.4%
CC(C)(Cc1ccc(Oc2ccc(S(C)(=O)=O)cc2)cc1)NC[C@H](O)COc1ccccc1-c1ccno1 [Example 132]	34.6 ± 7.8%
CC(C)(Cc1ccc(Oc2ccc(S(C)(=O)=O)cc2)cc1)NC[C@H](O)COc1ccccc1-c1ccn[nH]1 [Example 133]	21.4 n = 1%

Structure (SMILES)	Emax (%) ± SEM
CC(C)(Cc1ccc(Oc2ccc(S(C)(=O)=O)cc2)cc1)NC[C@H](O)COc1ccccc1-c1ccon1.Cl [Example 134]	47.7 ± 6.5%
CC(C)(Cc1ccc(Oc2ccc(S(C)(=O)=O)cc2)cc1)NC[C@H](O)COc1ccccc1-c1ccno1.O=C(O)C(F)(F)F [Example 135]	35.2 ± 4.3%
CC(C)(Cc1ccc(Oc2ccc(S(C)(=O)=O)cc2)cc1)NC[C@H](O)COc1cc(F)ccc1C1=CC(=O)OC1.Cl [Example 136]	<10%
COC(=O)c1ccc(Oc2ccc(CC(C)(C)NC[C@H](O)COc3ccccc3-c3ccnn3C)cc2)c(Cl)c1 [Example 137]	<10%
COC(=O)c1ccc(Oc2ccc(CC(C)(C)NC[C@H](O)COc3ccccc3-c3ccn(C)n3)cc2)c(Cl)c1 [Example 138]	41.7 n = 1%
COC(=O)c1ccc(Oc2ccc(CC(C)(C)NC[C@H](O)COc3ccccc3-c3cccs3)cc2)c(Cl)c1 [Example 139]	62.2 ± 7.4%
COC(=O)c1ccc(Oc2ccc(CC(C)(C)NC[C@H](O)COc3ccccc3-c3nccs3)cc2)c(Cl)c1 [Example 140]	48.9 ± 2.5%
COC(=O)c1ccc(Oc2ccc(CC(C)(C)NC[C@H](O)COc3ccccc3-c3ccno3)cc2)c(Cl)c1 [Example 141]	48.3 ± 9.9%
COC(=O)c1ccc(Oc2ccc(CC(C)(C)NC[C@H](O)COc3ccccc3-c3ccn[nH]3)cc2)c(Cl)c1 [Example 142]	20.2 n = 1%
CC(C)(Cc1ccc(Oc2cccnc2C#N)cc1)NC[C@H](O)COc1ccccc1-c1cccs1.O=C(O)C(F)(F)F [Example 143]	67.2 ± 4.8%
CC(C)(Cc1ccc(Oc2cccnc2C#N)cc1)NC[C@H](O)COc1ccccc1-c1nccs1.O=C(O)C(F)(F)F [Example 144]	55.9 ± 1.1%
CC(C)(Cc1ccc(Oc2ccc(C#N)nc2)cc1)NC[C@H](O)COc1ccccc1-c1nccs1.O=C(O)C(F)(F)F [Example 145]	44.6 ± 6.2%
CC(C)(Cc1ccc(Oc2cccnc2C#N)cc1)NC[C@H](O)COc1ccccc1-c1ccno1.O=C(O)C(F)(F)F [Example 146]	58.7 ± 2.9%
CC(C)(Cc1ccc(Oc2cccnc2C#N)cc1)NC[C@H](O)COc1ccccc1-c1ccns1.O=C(O)C(F)(F)F [Example 147]	58.9 ± 3.6%
CC(C)(Cc1ccc(Oc2ncccn2)cc1)NC[C@H](O)COc1ccccc1-c1cccs1.O=C(O)C(F)(F)F [Example 150]	69.8 ± 6.0%
CC(C)(Cc1ccc(Oc2ncccn2)cc1)NC[C@H](O)COc1ccccc1-c1nccs1.O=C(O)C(F)(F)F [Example 151]	73.1 ± 3.8%
CC(C)(Cc1ccc(Oc2ncccn2)cc1)NC[C@H](O)COc1ccccc1-c1ccno1.O=C(O)C(F)(F)F [Example 152]	45.3 ± 4.2%
CC(C)(Cc1ccc(Oc2cnccn2)cc1)NC[C@H](O)COc1ccccc1-c1cccs1.O=C(O)C(F)(F)F [Example 153]	66.8 ± 5.5%
CC(C)(Cc1ccc(Oc2cnccn2)cc1)NC[C@H](O)COc1ccccc1-c1nccs1.O=C(O)C(F)(F)F [Example 154]	61.1 ± 7.7%
CC(C)(Cc1ccc(Oc2cnccn2)cc1)NC[C@H](O)COc1ccccc1-c1ccno1.O=C(O)C(F)(F)F [Example 155]	46.6 ± 4.2%
CC(C)(Cc1ccc(Oc2nc(Cl)c(Cl)cc2Cl)cc1)NC[C@H](O)COc1ccccc1-c1cccs1.O=C(O)C(F)(F)F [Example 156]	84.9 ± 0.2%
CC(C)(Cc1ccc(Oc2nc(Cl)c(Cl)cc2Cl)cc1)NC[C@H](O)COc1ccccc1-c1nccs1.O=C(O)C(F)(F)F [Example 157]	73.3 ± 6.6%
CC(C)(Cc1ccc(Oc2nc(Cl)c(Cl)cc2Cl)cc1)NC[C@H](O)COc1ccccc1-c1ccno1.O=C(O)C(F)(F)F [Example 158]	73.0 ± 3.0%
CC(C)(Cc1ccc(Oc2ncc(C(F)(F)F)cc2Cl)cc1)NC[C@H](O)COc1ccccc1-c1cccs1.O=C(O)C(F)(F)F [Example 159]	76.9 ± 7.4%
CC(C)(Cc1ccc(Oc2ncc(C(F)(F)F)cc2Cl)cc1)NC[C@H](O)COc1ccccc1-c1ccno1.O=C(O)C(F)(F)F [Example 160]	56.3 ± 1.4%
